The target in the experiment is T1, Glucose-dependent insulinotropic receptor (Homo sapiens, UniProt Q8TDV5).
T1 sequence (Q8TDV5 whole entry): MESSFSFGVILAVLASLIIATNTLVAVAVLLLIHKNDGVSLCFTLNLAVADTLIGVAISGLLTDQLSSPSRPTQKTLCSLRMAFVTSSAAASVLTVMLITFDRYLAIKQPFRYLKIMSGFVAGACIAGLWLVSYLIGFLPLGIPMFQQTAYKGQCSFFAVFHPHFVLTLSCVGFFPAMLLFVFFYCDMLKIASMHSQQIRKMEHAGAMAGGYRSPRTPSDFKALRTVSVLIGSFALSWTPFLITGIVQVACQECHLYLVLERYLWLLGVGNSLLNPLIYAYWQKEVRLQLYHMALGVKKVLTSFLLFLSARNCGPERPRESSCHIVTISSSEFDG
Nature of the experiment: AlphaScreen cAMP Assay: MIN6 cells [Miyazaki J et al. Endocrinology. 1990 July; 127(1):126-32] are stably transfected with an expression vector for human GPR119 cDNA (Acc. No. NP_848566). Min-6/hGPR119 cells are cultured in DMEM, 10% FBS, 50 uM β-mercaptoethanol, 0.3 mg/mL Geniticin, 2 mM GlutaMAX at 37° C. 5% CO2. For the assay, the cells are seeded in Optiplates (white, 384-well, 160W-barcoded, TC, sterile with lid, Cat. No. #6007688 (Perkin Elmer); 10000 cells/well; 50 ul). The plates covered with lids are then incubated for 24 hours at 37° C./5% CO2. After the medium is aspirated from the wells completely, 10 ul of the test compound are added, the compounds are diluted using stimulating buffer (140 mM NaCl, 3.6 mM KCl, 0.5 mM NaH2PO4, 0.5 mM MgSO4, 1.5 mM CaCl2, 10 mM Hepes, 5 mM NaHCO3; pH 7.4. 0.5 mM IBMX and 0.1% BSA, the final DMSO concentration is 1%). After 45 minutes incubation at room temperature (approx. 20° C.), the cAMP concentrations are determined using the AlphaScreen cAMP Assay Kit (Cat. No. #6760625R from PerkinElmer). […]. The format is functional, cell-based. In general terms: Alpha assays give light when donor and acceptor beads are brought close together.

In the case of `CC(C)(C)OC(=O)N1CCC(N(C(=O)c2ccc(-c3ccc(CS(C)(=O)=O)cc3)cc2)C2CC2)CC1`, the EC50 – broadly, the concentration giving half of the maximal effect – is 57 nM.

In the case of `O=C(OC1CCCCC1)N1CCC(N(C(=O)c2ccc(-c3cnco3)cc2)C2CC2)CC1`, the EC50 was 59 nM.
